From patent US20070202116A1, “Treatment of micro-organism infection” (priority 2001, published 2007)
Like-named read-outs stand apart in the source and are kept apart here.

How the values were obtained:
[1] = tested on: EMRSA strains, vancomycin resistant subpopulations, Linzolid resistant strains; test: Checkerboard MIC / FIC / FIX of vancomycin and Aurograb (Tables 9, 10); format: cell-based, S. aureus; conditions: for MIC In combination: VAN with Aurograb; for MIC: Staphylococcus aureus
Experimental: In order to determine the Minimum Inhibitory Concentration (MIC), the Fractional Inhibitory Concentration (FIC) and the FIX (fractional inhibitory index), the following was method was used.
The cells were diluted in Isosensitest Broth (Oxoid, UK) to give a final inoculum of […] cells per mL. […] To this was added exogenous Aurograb in the range 0.3-25 μg/ml in a checkerboard formation. A negative control series was also prepared containing Aurograb formulation buffer alone. Cultures were incubated for 48 hours at 37° C.
The minimum inhibitory concentration (MIC) was defined as the lowest concentration of agent at which no bacterial growth occurred and was determined by spectrophotometric evaluation of the lack of turbidity (growth) in culture.
Fractional inhibitory concentrations (FIC) and FIX values were calculated. Synergistic activity between the two agents was defined as an FIX value ≦0.5. Indifferent activity was defined as a value of 0.5-4, and a value of ≧4 defined antagonism.
The MIC (Alone) column indicates the minimum inhibitory concentration of the agent when administered alone. The MIC (In combination) column indicates the minimum inhibitory concentration of each drug when used in combination.

EMRSA-15 [2] = format: in vivo, S. aureus; conditions: Group 3: Vancomycin 6 mg/kg alone iv
Experimental: Methods: 60 female CD-1 mice (22-24 g) were given 1×10^7 cfu of EMRSA-15 as a 100 μl iv bolus.
All mice were terminated at 48 hours for culture of kidney, liver and spleen.
Results: expressed as log cfu per gram of tissue, unless the majority of mice (>5) were cleared (ie organs were culture-negative). N/A=not applicable. (Table 7)

EMRSA-15 [3] = format: in vivo, S. aureus; conditions: for Survivors at 24 h (n = 10): 8×10^7 cfu; for Mortality: 10 mice
Experimental: Method: 60 female CD-I mice (22-24 g) were given S. aureus (a fresh clinical isolate of EMRSA-15) at a dose of 8×10^7 cfu in a 100 μl iv bolus.
All mice were terminated at 48 hours for culture of kidney, liver and spleen. Mice fatalities prior to the 48 hour cull were not subject to organ colony counts.

CN[C@H](CC(C)C)C(=O)N[C@H]1C(=O)N[C@@H](CC(N)=O)C(=O)N[C@H]2C(=O)N[C@H]3C(=O)N[C@H](C(=O)N[C@H](C(=O)O)c4cc(O)cc(O)c4-c4cc3ccc4O)[C@H](O)c3ccc(c(Cl)c3)Oc3cc2cc(c3O[C@@H]2O[C@H](CO)[C@@H](O)[C@H](O)[C@H]2O[C@H]2C[C@](C)(N)[C@H](O)[C@H](C)O2)Oc2ccc(cc2Cl)[C@H]1O [Vancomycin, vancomycin]
MIC In combination ([1]; EMRSA strain 1): 0.03 µg/mL | MIC In combination ([1]; EMRSA strain 1A): 1 µg/mL | MIC In combination ([1]; EMRSA strain 2): 0.03 µg/mL | MIC In combination ([1]; EMRSA strain 2A): 1 µg/mL | MIC In combination ([1]; EMRSA strain 3): 0.03 µg/mL | MIC In combination ([1]; EMRSA strain 4): 0.03 µg/mL | MIC In combination ([1]; EMRSA strain 5): 0.03 µg/mL | MIC In combination ([1]; EMRSA strain 6): 0.125 µg/mL | MIC In combination ([1]; EMRSA strain 7): 0.03 µg/mL | MIC In combination ([1]; EMRSA strain 8): 0.03 µg/mL | MIC In combination ([1]; EMRSA strain 8A): 0.03 µg/mL | MIC In combination ([1]; EMRSA strain 9): 0.0125 µg/mL | MIC In combination ([1]; EMRSA strain 10): 0.03 µg/mL | MIC In combination ([1]; EMRSA strain 11): 0.03 µg/mL | MIC In combination ([1]; EMRSA strain 11A): 1 µg/mL | MIC In combination ([1]; EMRSA strain 12): 0.03 µg/mL | MIC In combination ([1]; EMRSA strain 12A): 0.03 µg/mL | MIC In combination ([1]; EMRSA strain 13): 0.03 µg/mL | MIC In combination ([1]; EMRSA strain 14): 0.03 µg/mL | MIC In combination ([1]; EMRSA strain 15): 0.03 µg/mL | MIC In combination ([1]; EMRSA strain 15A): 0.03 µg/mL | MIC In combination ([1]; EMRSA strain 16): 0.03 µg/mL | MIC In combination ([1]; EMRSA strain 17): 1 µg/mL | MIC In combination ([1]; NARSA 1 (Hiramatsu)): 2 µg/mL | MIC In combination ([1]; NARSA 2 (Hiramatsu)): 0.5 µg/mL | MIC In combination ([1]; NARSA 12 (France)): 1 µg/mL | MIC In combination ([1]; NARSA 17 (New York)): 2 µg/mL | MIC In combination ([1]; NARSA 119 (Linezolid R)): 1 µg/mL | MIC In combination ([1]; NARSA 120 (Linezolid R)): 1 µg/mL | MIC In combination ([1]; NARSA 121 (Linezolid R)): 1 µg/mL | MIC ([1]; read-out: MIC Alone, EMRSA strain 1): 0.5 µg/mL | MIC ([1]; read-out: MIC Alone, EMRSA strain 1A): 8 µg/mL | MIC ([1]; read-out: MIC Alone, EMRSA strain 2): 0.5 µg/mL | MIC ([1]; read-out: MIC Alone, EMRSA strain 2A): 8 µg/mL | MIC ([1]; read-out: MIC Alone, EMRSA strain 3): 0.5 µg/mL | MIC ([1]; read-out: MIC Alone, EMRSA strain 4): 0.5 µg/mL | MIC ([1]; read-out: MIC Alone, EMRSA strain 5): 0.5 µg/mL | MIC ([1]; read-out: MIC Alone, EMRSA strain 6): 0.5 µg/mL | MIC ([1]; read-out: MIC Alone, EMRSA strain 7): 0.5 µg/mL | MIC ([1]; read-out: MIC Alone, EMRSA strain 8): 0.5 µg/mL | MIC ([1]; read-out: MIC Alone, EMRSA strain 8A): 0.5 µg/mL | MIC ([1]; read-out: MIC Alone, EMRSA strain 9): 0.5 µg/mL | MIC ([1]; read-out: MIC Alone, EMRSA strain 10): 0.5 µg/mL | MIC ([1]; read-out: MIC Alone, EMRSA strain 11): 0.5 µg/mL | MIC ([1]; read-out: MIC Alone, EMRSA strain 11A): 4 µg/mL | MIC ([1]; read-out: MIC Alone, EMRSA strain 12): 0.5 µg/mL | MIC ([1]; read-out: MIC Alone, EMRSA strain 12A): 0.5 µg/mL | MIC ([1]; read-out: MIC Alone, EMRSA strain 13): 0.5 µg/mL | MIC ([1]; read-out: MIC Alone, EMRSA strain 14): 0.5 µg/mL | MIC ([1]; read-out: MIC Alone, EMRSA strain 15): 0.5 µg/mL | MIC ([1]; read-out: MIC Alone, EMRSA strain 15A): 0.5 µg/mL | MIC ([1]; read-out: MIC Alone, EMRSA strain 16): 0.5 µg/mL | MIC ([1]; read-out: MIC Alone, EMRSA strain 17): 4 µg/mL | MIC ([1]; read-out: MIC Alone, NARSA 1 (Hiramatsu)): 8 µg/mL | MIC ([1]; read-out: MIC Alone, NARSA 2 (Hiramatsu)): 3 µg/mL | MIC ([1]; read-out: MIC Alone, NARSA 12 (France)): 8 µg/mL | MIC ([1]; read-out: MIC Alone, NARSA 17 (New York)): 8 µg/mL | MIC ([1]; read-out: MIC Alone, NARSA 119 (Linezolid R)): 4 µg/mL | MIC ([1]; read-out: MIC Alone, NARSA 120 (Linezolid R)): 4 µg/mL | MIC ([1]; read-out: MIC Alone, NARSA 121 (Linezolid R)): 4 µg/mL | Liver, number of mice cleared (EMRSA-15 [2]; 10 mice): N/A (8 clear) | Spleen, number of mice cleared (EMRSA-15 [2]; 10 mice): 5 | Liver, number of mice cleared (EMRSA-15 [2]; 10 mice, listed as vancomycin): 8 | Kidney Log cfu/g of tissue (EMRSA-15 [2]; 48 hours): 6.53 ± 1.53 Log cfu/g of tissue | Survivors at 24 h (n = 10) (EMRSA-15 [3]; Group 2: Vancomycin 4.0 mg/kg alone iv): 4 | Survivors at 24 h (n = 10) (EMRSA-15 [3]; Group 4: Vancomycin 2.0 mg/kg alone iv): 5 | Mortality (EMRSA-15 [3]; vancomycin alone 2.0 mg/kg): 5 deaths | Mortality (EMRSA-15 [3]; vancomycin alone 4.0 mg/kg): 6 deaths
